Test: Fluorescence Based Assay: The details of the KEAP1 KELCH ThermoFluor® Assay Construct are as follows: Kelch domain of human KEAP 1 (321-624 aa) was used in the assay. The protein was expressed in E. coli with 6His tag that was cleaved prior to receipt for use.ThermoFluor® experiments were carried out using instruments owned by Janssen Research and Discovery, L.L.C. through its acquisition of 3-Dimensional Pharmaceuticals, Inc. 1,8-ANS (Invitrogen) was used as a fluorescent dye. Protein (KEAP Kelch) and compound solutions were dispensed into black 384-well polypropylene PCR microplates (Abgene) and overlayed with silicone oil (1 μL, Fluka, type DC 200) to prevent evaporation.Reference wells contained KEAP Kelch without compounds, and the assay conditions were as follows: 1.1 μM (0.037mg/mL) KEAP Kelch, 80 μM 1,8-ANS, 25 mM PIPES, pH 7.0, 100 mM NaCl, 0.002% Tween-20.

`Cc1ccc([C@H](CC(=O)O)c2ccc3c(nnn3CC3CC3)c2C(F)F)cc1CN1C[C@H]2CCCCN2c2ncccc2S1(=O)=O` and `Cc1ccc(C(CC(=O)O)c2ccc3c(nnn3CC3CC3)c2C)cc1CN1C[C@H]2CCCCN2c2ncccc2S1(=O)=O` (some centres undefined) cannot be ordered by Kd: under 1 nM for the first, under 1 nM for the second.

`Cc1ccc([C@@H](c2ccn3c(C(F)(F)F)nnc3c2C)C(C)(C)C(=O)O)cc1CN1CC2(CC2)Oc2nc(OCCN3CCOCC3)c(C)cc2S1(=O)=O` and `Cc1ccc([C@@H](c2ccn3c(C(F)(F)F)nnc3c2C)C(C)(C)C(=O)O)cc1CN1CC2(CCOCC2)Oc2nc(OCCN3CCCC3)c(C)cc2S1(=O)=O` cannot be ordered by Kd: under 1 nM for the first, under 1 nM for the second.

`Cc1ccc([C@H](CC(=O)O)c2ccn3c(C(F)F)nnc3c2C)cc1CN1C[C@H]2CCCN2c2ncc(C#N)cc2S1(=O)=O` and `Cc1ccc([C@@H](CC(=O)O)c2ccn3c(C(F)F)nnc3c2C)cc1CN1C[C@@H]2CCCN2c2ncc(C#N)cc2S1(=O)=O` cannot be ordered by Kd: under 1 nM for the first, under 1 nM for the second.

`CC[C@@H]1CN(Cc2cc(C(CC(=O)O)c3ccn4c(C(F)F)nnc4c3C)ccc2C)S(=O)(=O)c2cccnc2O1` (some centres undefined) and `Cc1ccc([C@@H](CC(=O)O)c2ccn3c(C(F)F)nnc3c2C)cc1CN1CC2(CC2)Oc2ncccc2S1(=O)=O` cannot be ordered by Kd: under 1 nM for the first, under 1 nM for the second.

`COc1ccc2c(n1)OC1(CCOCC1)CN(Cc1cc([C@@H](c3ccn4c(C(F)F)nnc4c3C)C(C)(C)C(=O)O)ccc1C)S2(=O)=O` and `Cc1ccc(C(c2ccn3c(C(F)F)nnc3c2C)C(C)(C)C(=O)O)cc1CN1CC2(CCOCC2)Oc2ncccc2S1(=O)=O` (centres undefined) cannot be ordered by Kd: under 1 nM for the first, under 1 nM for the second.

`Cc1ccc([C@@H](c2ccc3c(nnn3CC3CC3)c2C)C(C)(C)C(=O)O)nc1CN1CC2(CCOCC2)Oc2nc(OCCN3CCOCC3)ccc2S1(=O)=O` and `Cc1ccc([C@@H](c2ccn3c(C(F)(F)F)nnc3c2C)C(C)(C)C(=O)O)nc1CN1CC2(CCOCC2)Oc2nc(OCCN3CCOCC3)ccc2S1(=O)=O` cannot be ordered by Kd: under 1 nM for the first, under 1 nM for the second.

`Cc1ccc([C@@H](CC(=O)O)c2ccn3c(C(F)(F)F)nnc3c2C)nc1CN1CC2(COC2)Oc2ncccc2S1(=O)=O` and `Cc1ccc([C@H](CC(=O)O)c2ccn3c(C(F)(F)F)nnc3c2C)nc1CN1CC2(COC2)Oc2ncccc2S1(=O)=O` cannot be ordered by Kd: under 1 nM for the first, under 1 nM for the second.

`Cc1ccc([C@H](CC(=O)O)c2ccc3c(nnn3C3CC3)c2C)cc1CN1CC2(COC2)Oc2ccccc2S1(=O)=O` and `CCn1nnc2c(C)c(C(CC(=O)O)c3ccc(C)c(CN4CC5(COC5)Oc5ncccc5S4(=O)=O)c3)ccc21` (centres undefined) cannot be ordered by Kd: under 1 nM for the first, under 1 nM for the second.

`CCc1nnc2c(C)c([C@@H](CC(=O)O)c3ccc(C)c(CN4C[C@H]5CCCN5c5ncccc5S4(=O)=O)c3)ccn12` and `Cc1ccc([C@@H](CC(=O)O)c2ccn3c(C(F)F)nnc3c2C)cc1CN1C[C@H]2CCCN2c2ncccc2S1(=O)=O` cannot be ordered by Kd: under 1 nM for the first, under 1 nM for the second.

`COC1CCN(CCOc2nc3c(cc2C)S(=O)(=O)N(Cc2cc([C@@H](c4ccn5c(C(F)(F)F)nnc5c4C)C(C)(C)C(=O)O)ccc2C)CC2(CC2)O3)CC1` and `Cc1cnc([C@@H](c2ccn3c(C(F)(F)F)nnc3c2C)C(C)(C)C(=O)O)cc1CN1CC2(CC2)Oc2nc(OCCN3CCCCC3)c(C)cc2S1(=O)=O` cannot be ordered by Kd: under 1 nM for the first, under 1 nM for the second.

`Cc1cnc([C@@H](c2ccn3c(C(F)F)nnc3c2C)C(C)(C)C(=O)O)cc1CN1CC2(CC2)Oc2nc(OCCN3CCCCC3)c(C)cc2S1(=O)=O` and `Cc1cnc([C@@H](c2ccn3c(C(F)F)nnc3c2C)C(C)(C)C(=O)O)cc1CN1CC2(CC2)Oc2nc(OCCN3CCCC3)c(C)cc2S1(=O)=O` cannot be ordered by Kd: under 1 nM for the first, under 1 nM for the second.

`Cc1ccc([C@H](CC(=O)O)c2ccc3c(nnn3CC3CC3)c2C)cc1CN1C[C@H]2CCCN2c2ncccc2S1(=O)=O` and `Cc1ccc(C(CC(=O)O)c2ccc3c(nnn3C3CC3)c2C)cc1CN1C[C@H]2CCCN2c2ncccc2S1(=O)=O` (some centres undefined) cannot be ordered by Kd: under 1 nM for the first, under 1 nM for the second.

`Cc1ccc([C@H](c2ccn3c(C(F)(F)F)nnc3c2C)C(C)(C)C(=O)O)cc1CN1C[C@@H]2CCCCN2c2ncc(C#N)cc2S1(=O)=O` and `Cc1ccc([C@H](CC(=O)O)c2ccn3c(C(F)(F)F)nnc3c2C)cc1CN1CC2CCCCN2c2ncc(C#N)cc2S1(=O)=O` (some centres undefined) cannot be ordered by Kd: under 1 nM for the first, under 1 nM for the second.

First: Cc1ccc([C@@H](c2ccn3c(C(F)(F)F)nnc3c2C)C(C)(C)C(=O)O)cc1CN1CC2(CCOCC2)Oc2nc(CCC(=O)NCCOCCN)ccc2S1(=O)=O
Second: Cc1ccc([C@@H](c2ccn3c(C(F)(F)F)nnc3c2C)C(C)(C)C(=O)O)cc1CN1CC2(CCOCC2)Oc2ncccc2S1(=O)=O
The Kd of the first is higher: over 10000 nM for the first, under 1 nM for the second.

`Cc1cnc2c(c1)S(=O)(=O)N(Cc1nc(C(CC(=O)O)c3ccn4c(C(F)(F)F)nnc4c3C)ccc1C)C[C@@H]1CCCCN21` (some centres undefined) and `Cc1ccc([C@H](CC(=O)O)c2ccn3c(C(F)(F)F)nnc3c2C)nc1CN1C[C@@H]2CCCCN2c2ncc(F)cc2S1(=O)=O` cannot be ordered by Kd: under 1 nM for the first, under 1 nM for the second.

`Cc1ccc([C@H](CC(=O)O)c2ccn3c(C)nnc3c2)cc1CN1C[C@H]2CCCN2c2ccccc2S1(=O)=O` and `CCn1nnc2c(C)c([C@H](CC(=O)O)c3ccc(C)c(CN4C[C@H]5CCCN5c5ccccc5S4(=O)=O)c3)ccc21` cannot be ordered by Kd: under 1 nM for the first, under 1 nM for the second.

`Cc1ccc([C@H](CC(=O)O)c2ccn3c(C(F)(F)F)nnc3c2C)nc1CN1C[C@@H]2CCCCN2c2ncc(C#N)cc2S1(=O)=O` and `Cc1ccc([C@@H](CC(=O)O)c2ccn3c(C(F)(F)F)nnc3c2C)nc1CN1C[C@@H]2CCCCN2c2ncc(C#N)cc2S1(=O)=O` cannot be ordered by Kd: under 1 nM for the first, under 1 nM for the second.

`Cc1ccc([C@H](CC(=O)O)c2ccn3c(C(F)(F)F)nnc3c2C)cc1CN1C[C@@H]2CCCCN2c2ncccc2S1(=O)=O` and `Cc1ccc(C(CC(=O)O)c2ccn3c(C(F)(F)F)nnc3c2C)cc1CN1C[C@@H]2CCCCN2c2ncccc2S1(=O)=O` (some centres undefined) cannot be ordered by Kd: under 1 nM for the first, under 1 nM for the second.

`Cc1ccc(C(c2cc(C)n3c(C(F)(F)F)nnc3c2C)C(C)C(=O)O)cc1CN1C[C@@H]2CCCCN2c2ncccc2S1(=O)=O` (some centres undefined) and `Cc1cc2cc([C@H](CC(=O)O)c3ccc(C)c(CN4C[C@H]5CCCCN5c5ncccc5S4(=O)=O)c3)n(C)c2nn1` cannot be ordered by Kd: under 1 nM for the first, under 1 nM for the second.

`Cc1cnc2c(c1)S(=O)(=O)N(Cc1cc([C@@H](c3ccn4c(C(F)F)nnc4c3C)C(C)(C)C(=O)O)ncc1C)CC1(CC1)O2` and `Cc1cnc2c(c1)S(=O)(=O)N(Cc1cc([C@@H](c3ccn4c(C(F)(F)F)nnc4c3C)C(C)(C)C(=O)O)ncc1C)CC1(CCOCC1)O2` cannot be ordered by Kd: under 1 nM for the first, under 1 nM for the second.

`Cc1cnc2c(c1)S(=O)(=O)N(Cc1nc([C@@H](c3ccn4c(C(F)F)nnc4c3C)C(C)(C)C(=O)O)ccc1C)CC1(COC1)O2` and `Cc1cnc([C@@H](c2ccn3c(C(F)F)nnc3c2C)C(C)(C)C(=O)O)cc1CN1CC2(CCOCC2)Oc2nc(OCCN3CCCC3)c(C)cc2S1(=O)=O` cannot be ordered by Kd: under 1 nM for the first, under 1 nM for the second.

`CCn1nnc2c(C)c([C@@H](CC(=O)O)c3ccc(C)c(CN4C[C@H]5CCCCN5c5ncccc5S4(=O)=O)n3)ccc21` and `CCn1nnc2c(C)c([C@@H](CC(=O)O)c3ccc(C)c(CN4C[C@H]5CCCN5c5ncccc5S4(=O)=O)n3)ccc21` cannot be ordered by Kd: under 1 nM for the first, under 1 nM for the second.

`Cc1ccc([C@@H](c2ccn3c(C(F)(F)F)nnc3c2C)C(C)(C)C(=O)O)cc1CN1CC2(CCOCC2)Oc2nc(O[C@H](C)CN3CCCCC3)c(C)cc2S1(=O)=O` and `Cc1ccc([C@@H](c2ccn3c(C(F)(F)F)nnc3c2C)C(C)(C)C(=O)O)cc1CN1CC2(CCOCC2)Oc2nc(OC(C)CN3CCCCC3)c(C)cc2S1(=O)=O` (some centres undefined) cannot be ordered by Kd: under 1 nM for the first, under 1 nM for the second.

`Cc1ccc([C@H](CC(=O)O)c2ccn3c(C(F)F)nnc3c2C)cc1CN1CC2(CCOCC2)Oc2ncc(F)cc2S1(=O)=O` and `Cc1ccc([C@H](CC(=O)O)c2ccn3c(C(F)(F)F)nnc3c2C)cc1CN1CC2(CC2)Oc2ncc(C#N)cc2S1(=O)=O` cannot be ordered by Kd: under 1 nM for the first, under 1 nM for the second.

`Cc1ccc([C@H](c2ccn3c(C(F)(F)F)nnc3c2C)C(C)(C)C(=O)O)cc1CN1CC2(CCOCC2)Oc2nc(N[C@@H](C)CN3CCCC3)c(C)cc2S1(=O)=O` and `Cc1ccc([C@H](c2ccn3c(C(F)(F)F)nnc3c2C)C(C)(C)C(=O)O)cc1CN1CC2(CCOCC2)Oc2nc(NC(C)CN3CCCCC3)c(C)cc2S1(=O)=O` (some centres undefined) cannot be ordered by Kd: under 1 nM for the first, under 1 nM for the second.

`Cc1ccc([C@H](c2ccn3c(C(F)(F)F)nnc3c2C)C(C)(C)C(=O)O)cc1CN1CC2(CCOCC2)Oc2nc(NCCN3CCNCC3)c(C)cc2S1(=O)=O` and `Cc1ccc([C@H](c2ccn3c(C(F)(F)F)nnc3c2C)C(C)(C)C(=O)O)cc1CN1CC2(CCOCC2)Oc2nc(OCCN3CCNCC3)ccc2S1(=O)=O` cannot be ordered by Kd: under 1 nM for the first, under 1 nM for the second.

`Cc1ccc([C@H](c2ccn3c(C(F)(F)F)nnc3c2C)C(C)(C)C(=O)O)cc1CN1CC2(CCOCC2)Oc2nc(OCCN3CCC(F)(F)CC3)ccc2S1(=O)=O` and `Cc1ccc([C@H](c2ccn3c(C(F)(F)F)nnc3c2C)C(C)(C)C(=O)O)cc1CN1CC2(CCOCC2)Oc2nc(N[C@@H](C)CN3CCOCC3)c(C)cc2S1(=O)=O` cannot be ordered by Kd: under 1 nM for the first, under 1 nM for the second.

`Cc1ccc(C(CC(=O)O)c2ccn3c(C)nnc3c2)cc1CN1CC(C)(C)Oc2ncccc2S1(=O)=O` (centres undefined) and `Cc1ccc([C@@H](CC(=O)O)c2ccn3c(C(F)(F)F)nnc3c2C)cc1CN1C[C@]2(C)CCCN2c2ncccc2S1(=O)=O` cannot be ordered by Kd: under 1 nM for the first, under 1 nM for the second.

`Cc1ccc(C(CC(=O)O)c2ccn3c(C4CC4)nnc3c2C)cc1CN1C[C@H]2CCCN2c2ncccc2S1(=O)=O` (some centres undefined) and `Cc1ccc(C(CC(=O)O)c2ccc3c(nnn3C3CC3)c2C)cc1CN1C[C@@H]2CCCCN2c2ncccc2S1(=O)=O` (some centres undefined) cannot be ordered by Kd: under 1 nM for the first, under 1 nM for the second.

`Cc1ccc([C@H](CC(=O)O)c2ccn3c(C(F)F)nnc3c2C)cc1CN1C[C@]2(C)CCCN2c2ncccc2S1(=O)=O` and `Cc1ccc([C@H](CC(=O)O)c2ccn3c(C(F)F)nnc3c2C)cc1CN1C[C@@H]2COCCN2c2ncccc2S1(=O)=O` cannot be ordered by Kd: under 1 nM for the first, under 1 nM for the second.

`Cc1cnc2c(c1)S(=O)(=O)N(Cc1cc([C@H](c3ccc4c(nnn4C4CC4)c3C)C(C)(C)C(=O)O)cnc1C)CC1(CCOCC1)O2` and `CCn1nnc2c(C)c(C(c3cnc(C)c(CN4CC5(CCOCC5)Oc5ncc(C)cc5S4(=O)=O)c3)C(C)(C)C(=O)O)ccc21` (centres undefined) cannot be ordered by Kd: under 1 nM for the first, under 1 nM for the second.

`Cc1ccc([C@@H](CC(=O)O)c2cc(OC(F)F)c3c(c2)nnn3C)cc1CN1C[C@H]2CCCN2c2ncccc2S1(=O)=O` and `CCn1nnc2c(C)c([C@H](c3cc(CN4CC5(CC5)Oc5ncc(C)cc5S4(=O)=O)c(C)cn3)C(C)(C)C(=O)O)ccc21` cannot be ordered by Kd: under 1 nM for the first, under 1 nM for the second.
